Experimental data from US20110251379A1, “COMPOUNDS USEFUL FOR TREATING NEURODEGENERATIVE DISORDERS” (Satori Pharmaceuticals, Inc., priority 2010, published 2011).
pIC50: −log10 of the molar value. Like-named read-outs stand apart in the source and are kept apart here.

What was measured:
Assay type in all cases: cell-based
Aβ-38 = assay: MSD Human (6E10) Ab 3-PLEX elisa, conditioned media of 2B7 cells: Aβ-38; details: Homo sapiens; for pIC50: Aβ-38 (superscript a); for inhibition at 20 µM: Aβ-38, 20 μM
Summary of the method: (§1)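 Each Aβ peptide was measured by MSD 6E10 3-plex electrochemiluminescence against its own seven-point standard curve. Samples were conditioned media from 2B7 cells exposed to compound for 5 hours at 37° C with 1% DMSO. Percent-vehicle values were fitted to a 4-parameter curve to give IC50.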

Aβ-40 = assay: MSD Human (6E10) Ab 3-PLEX elisa, conditioned media of 2B7 cells: Aβ-40; details: Homo sapiens; for pIC50: Aβ-40 (superscript b); for inhibition at 20 µM: Aβ-40, 20 μM
Summary of the method: as §1

Aβ-42 = assay: MSD Human (6E10) Ab 3-PLEX elisa, conditioned media of 2B7 cells: Aβ-42; details: Homo sapiens; for inhibition at 20 µM: Aβ-42, 20 μM; for pIC50: Aβ-42 (superscript c)
Summary of the method: as §1

Compound	pIC50 (Aβ-38; read-out: 50% reduction value)	pIC50 (Aβ-40; read-out: 50% reduction value)	inhibition at 20 µM (Aβ-42) [%]	pIC50 (Aβ-42; read-out: IC50 range)	pIC50 (Aβ-40; read-out: IC50 range)	pIC50 (Aβ-42; read-out: 50% reduction value)	further results
CC(C)OC(C)(C)[C@H](O)C1C[C@@H](C)[C@H]2C(O1)[C@H](O)[C@@]1(C)C3CC[C@H]4C(C)(C)C(O)CC[C@@]45C[C@@]35CC[C@]21C (stereo partly drawn)	5.00 to 6.00	< 5.00	25 to 75	–	–	–	–
C[C@@H]1CC(CN2CCC[C@H]2C(=O)O)OC2[C@H]1[C@@]1(C)CC[C@@]34C[C@@]35CC[C@H](O[C@H]3CN(C(=O)CC6CC6)CCO3)C(C)(C)[C@@H]5CCC4[C@]1(C)[C@H]2O (stereo partly drawn)	–	–	–	< 5.00	–	–	inhibition at 100 µM (Aβ-38; Aβ-38, 100 μM): 25 to 75%; inhibition at 100 µM (Aβ-40; Aβ-40, 100 μM): 25 to 75%
CC(C)[C@@H](OC(=O)C1CCOCC1)C1C[C@@H](C)[C@H]2C(O1)[C@H](O)[C@@]1(C)[C@@H]3CC[C@H]4C(C)(C)C(O)CC[C@@]45C[C@@]35CC[C@]21C (stereo partly drawn)	–	–	–	5.00 to 6.00	5.00 to 6.00	–	pIC50 (Aβ-38; read-out: IC50 range): < 5.00
CC(=O)O[C@@H]([C@H]1C[C@@H](C)C2C(O1)[C@H](O)[C@@]1(C)[C@@H]3CC[C@H]4C(C)(C)[C@@H](OC5CN(CC(N)=O)CCO5)CC[C@@]45C[C@@]35CC[C@]21C)C(C)(C)O (stereo partly drawn) [drawing 1198]	> 6.00	–	–	5.00 to 6.00	–	> 6.00	inhibition at 20 µM (Aβ-40): 25 to 75%
CC(C)[C@@H](OC(N)=O)C1C[C@@H](C)[C@H]2C(O1)[C@H](O)[C@@]1(C)[C@@H]3CC[C@H]4C(C)(C)C(O[C@H]5CNCCO5)CC[C@@]45C[C@@]35CC[C@]21C (stereo partly drawn)	> 6.00	5.00 to 6.00	–	> 6.00	5.00 to 6.00	> 6.00	–
C[C@@H]1CC(COC(N)=O)OC2[C@H]1[C@@]1(C)CC[C@@]34C[C@@]35CC[C@H](O)C(C)(C)[C@@H]5CCC4[C@]1(C)[C@H]2O (stereo partly drawn)	< 5.00	< 5.00	25 to 75	–	–	–	inhibition at 20 µM (Aβ-38): 25 to 75%
CC(C)CO[C@@H](C1C[C@@H](C)[C@H]2C(O1)[C@H](O)[C@@]1(C)C3CC[C@H]4C(C)(C)C(O[C@H]5CN(C6COC6)CCO5)CC[C@@]45C[C@@]35CC[C@]21C)C(C)(C)O (stereo partly drawn)	> 6.00	5.00 to 6.00	–	–	5.00 to 6.00	5.00 to 6.00	pIC50 (Aβ-38; read-out: IC50 range): > 6.00
C[C@@H]1CC([C@H](Oc2ncccn2)C(C)(C)O)OC2C1[C@@]1(C)CC[C@@]34C[C@@]35CCC(O)C(C)(C)[C@@H]5CCC4[C@]1(C)[C@H]2O (stereo partly drawn)	–	–	25 to 75	–	–	–	inhibition at 20 µM (Aβ-38): 25 to 75%; inhibition at 20 µM (Aβ-40): 25 to 75%
